The test system of this assay is MV-4-11 cells. In words: Gene expression microarray analysis (Affymetrix PrimeView) and GSEA. The format is cell-based, human. Further details: RFU PODN (11730768_x_at) / Fold change /veh PODN (11730768_x_at) / RFU LINC00158 (11744669_a_at) / Fold change /veh LINC00158 (11744669_a_at) / RFU DUSP10 (11751237_a_at) / Fold change /veh DUSP10 (11751237_a_at) / RFU ID3 (11757404_x_at) / Fold change /veh ID3 (11757404_x_at) / RFU PLEKHG5 (11737974_s_at) / Fold change /veh PLEKHG5 (11737974_s_at) / RFU LRRC4B (11730491_at) / Fold change /veh LRRC4B (11730491_at) / RFU GIMAP4 (11747438_a_at) / Fold change /veh GIMAP4 (11747438_a_at) / RFU KRT8 (11758183_x_at) / Fold change /veh KRT8 (11758183_x_at) / RFU CNN1 (11734310_a_at) / Fold change /veh CNN1 (11734310_a_at) / RFU VPS37D (11726825_at) / Fold change /veh VPS37D (11726825_at) / RFU C10orf10 (11716522_x_at) / Fold change /veh C10orf10 (11716522_x_at) / RFU KIR2DL2 /// KIR2DL4 /// KIR2DL5A /// KIR2DL5B /// KIR2DS1 /// KIR2DS2 /// KIR2DS3 /// KIR2DS4 /// KIR3DL3 /// KIR3DL3 /// KIR3DS1 (11738374_at) / Fold change /veh KIR2DL2 /// KIR2DL4 /// KIR2DL5A /// KIR2DL5B /// KIR2DS1 /// KIR2DS2 /// KIR2DS3 /// KIR2DS4 /// KIR3DL3 /// KIR3DL3 /// KIR3DS1 (11738374_at) / RFU C1QL1 (11718748_at) / Fold change /veh C1QL1 (11718748_at) / RFU TMPRSS4 (11747572_a_at) / Fold change /veh TMPRSS4 (11747572_a_at) / RFU HAMP (11756126_x_at) / Fold change /veh HAMP (11756126_x_at) / RFU RNFT2 (11725882_a_at) / Fold change /veh RNFT2 (11725882_a_at) / RFU NR4A2 (11747474_a_at) / Fold change /veh NR4A2 (11747474_a_at) / RFU ABCC12 (11746883_a_at) / Fold change /veh ABCC12 (11746883_a_at) / RFU TMEM136 (11760407_x_at) / Fold change /veh TMEM136 (11760407_x_at) / RFU CLDN22 /// WWC2 (11732394_at) / Fold change /veh CLDN22 /// WWC2 (11732394_at) / RFU HLA-DPB1 (11760878_x_at) / Fold change /veh HLA-DPB1 (11760878_x_at) / RFU SPINT1 (11716480_a_at) / Fold change /veh SPINT1 (11716480_a_at) / RFU GAP43 (11754022_s_at) / Fold change /veh GAP43 (11754022_s_at) / RFU A4GNT (11735810_at) / Fold change /veh A4GNT (11735810_at) / RFU PRB3 (11715151_x_at) / Fold change /veh PRB3 (11715151_x_at) / RFU TUBB4B (11761932_at) / Fold change /veh TUBB4B (11761932_at) / RFU CAPN14 (11732068_a_at) / Fold change /veh CAPN14 (11732068_a_at) / RFU TMCC2 (11721928_a_at) / Fold change /veh TMCC2 (11721928_a_at) / RFU IRGQ (11745062_a_at) / Fold change /veh IRGQ (11745062_a_at) / RFU FAM174B (11720279_a_at) / Fold change /veh FAM174B (11720279_a_at) / RFU TMPRSS4 (11748680_a_at) / Fold change /veh TMPRSS4 (11748680_a_at) / RFU FAM212B (11763350_a_at) / Fold change /veh FAM212B (11763350_a_at) / RFU PLEKHG5 (11743358_a_at) / Fold change /veh PLEKHG5 (11743358_a_at) / RFU ZSCAN30 (11745921_a_at) / Fold change /veh ZSCAN30 (11745921_a_at) / RFU CMKLR1 (11741424_a_at) / Fold change /veh CMKLR1 (11741424_a_at) / RFU LOC101060620 /// MAPK8IP1 (11723275_at) / Fold change /veh LOC101060620 /// MAPK8IP1 (11723275_at) / RFU SPTSSB (11747773_x_at) / Fold change /veh SPTSSB (11747773_x_at) / RFU PRSS12 (11739890_at) / Fold change /veh PRSS12 (11739890_at) / RFU BIN1 (11741810_x_at) / Fold change /veh BIN1 (11741810_x_at) / RFU WNT11 (11732464_a_at) / Fold change /veh WNT11 (11732464_a_at) / RFU C10orf10 (11716521_a_at) / Fold change /veh C10orf10 (11716521_a_at) / RFU C5orf56 (11738089_at) / Fold change /veh C5orf56 (11738089_at) / RFU CYB561 (11721691_x_at) / Fold change /veh CYB561 (11721691_x_at) / RFU ANKRD19P (11752326_a_at) / Fold change /veh ANKRD19P (11752326_a_at) / RFU OR2T12 /// OR2T33 /// OR2T8 (11738714_s_at) / Fold change /veh OR2T12 /// OR2T33 /// OR2T8 (11738714_s_at) / RFU VCAN (11748164_a_at) / Fold change /veh VCAN (11748164_a_at) / RFU JSRP1 (11732532_at) / Fold change /veh JSRP1 (11732532_at) / RFU KRTAP10-11 (11738290_x_at) / Fold change /veh KRTAP10-11 (11738290_x_at) / RFU MYO3A (11730013_a_at) / Fold change /veh MYO3A (11730013_a_at) / RFU EBF3 (11725865_a_at) / Fold change /veh EBF3 (11725865_a_at) / RFU CAMK2N1 (11719241_x_at) / Fold change /veh CAMK2N1 (11719241_x_at) / RFU C5orf56 (11738088_a_at) / Fold change /veh C5orf56 (11738088_a_at) / RFU OLFML3 (11715873_a_at) / Fold change /veh OLFML3 (11715873_a_at) / RFU LOC100653217 /// NTM (11731650_a_at) / Fold change /veh LOC100653217 /// NTM (11731650_a_at) / RFU MAPK11 (11762145_a_at) / Fold change /veh MAPK11 (11762145_a_at) / RFU FIZ1 (11724087_x_at) / Fold change /veh FIZ1 (11724087_x_at) / RFU OASL (11726364_x_at) / Fold change /veh OASL (11726364_x_at) / RFU SOX15 (11748057_x_at) / Fold change /veh SOX15 (11748057_x_at) / RFU CD79A (11719716_a_at) / Fold change /veh CD79A (11719716_a_at) / RFU HIST1H1D (11736915_at) / Fold change /veh HIST1H1D (11736915_at) / RFU CASKIN2 (11723855_a_at) / Fold change /veh CASKIN2 (11723855_a_at) / RFU LOC730098 (11760151_x_at) / Fold change /veh LOC730098 (11760151_x_at) / RFU OR4N2 (11742367_at) / Fold change /veh OR4N2 (11742367_at) / RFU PRRT2 (11749266_a_at) / Fold change /veh PRRT2 (11749266_a_at) / RFU SNX32 (11753110_a_at) / Fold change /veh SNX32 (11753110_a_at) / RFU CDHR5 (11726645_a_at) / Fold change /veh CDHR5 (11726645_a_at) / RFU RCAN1 (11760418_a_at) / Fold change /veh RCAN1 (11760418_a_at) / RFU FAM167A (11723789_a_at) / Fold change /veh FAM167A (11723789_a_at) / RFU FAM26E (11764081_at) / Fold change /veh FAM26E (11764081_at) / RFU ISYNA1 (11749810_s_at) / Fold change /veh ISYNA1 (11749810_s_at) / RFU ACY1 (11761880_at) / Fold change /veh ACY1 (11761880_at) / RFU 11764098_at / Fold change /veh 11764098_at / RFU SAMD14 (11745864_x_at) / Fold change /veh SAMD14 (11745864_x_at) / RFU NPB (11741838_a_at) / Fold change /veh NPB (11741838_a_at) / RFU TMPRSS6 (11731388_a_at) / Fold change /veh TMPRSS6 (11731388_a_at) / RFU KRTAP10-2 (11738614_at) / Fold change /veh KRTAP10-2 (11738614_at) / RFU ARHGAP8 /// PRR5-ARHGAP8 (11727945_x_at) / Fold change /veh ARHGAP8 /// PRR5-ARHGAP8 (11727945_x_at) / RFU KRTAP5-7 /// NADSYN1 (11734609_at) / Fold change /veh KRTAP5-7 /// NADSYN1 (11734609_at) / RFU RASL12 (11751679_a_at) / Fold change /veh RASL12 (11751679_a_at) / RFU CDKN2B (11736163_a_at) / Fold change /veh CDKN2B (11736163_a_at) / RFU PRF1 (11729649_at) / Fold change /veh PRF1 (11729649_at) / RFU, ZNF638 /// ZNF638-IT1 / Fold change vs veh, ZNF638 /// ZNF638-IT1 / RFU, PANK3 / Fold change vs veh, PANK3 / RFU, SH3YL1 / Fold change vs veh, SH3YL1 / RFU, ZEB2 / Fold change vs veh, ZEB2 / RFU, NRIP1 / Fold change vs veh, NRIP1 / RFU, PTTG1IP / Fold change vs veh, PTTG1IP / RFU, CAPN2 / Fold change vs veh, CAPN2 / RFU, MED14 / Fold change vs veh, MED14 / RFU, SNORA58 / Fold change vs veh, SNORA58 / RFU, C1orf63 / Fold change vs veh, C1orf63 / RFU, LRRFIP1 / Fold change vs veh, LRRFIP1 / RFU, NDUFAF7 / Fold change vs veh, NDUFAF7 / RFU, SLC12A2 / Fold change vs veh, SLC12A2 / RFU, IBTK / Fold change vs veh, IBTK / RFU, ESF1 / Fold change vs veh, ESF1 / Fold change vs veh, TMEM50B / RFU, TAOK1 / Fold change vs veh, TAOK1 / RFU, ACBD3 / Fold change vs veh, ACBD3 / RFU, TMA16 / Fold change vs veh, TMA16 / RFU, RWDD3 / Fold change vs veh, RWDD3 / RFU, BCAT1 / Fold change vs veh, BCAT1 / RFU, EDEM3 / Fold change vs veh, EDEM3 / RFU, TMEM33 / Fold change vs veh, TMEM33 / RFU, WDR75 / Fold change vs veh, WDR75 / RFU, AHCTF1 / Fold change vs veh, AHCTF1 / RFU, TFRC / Fold change vs veh, TFRC / RFU, ZDHHC17 / Fold change vs veh, ZDHHC17 / RFU, NOM1 / Fold change vs veh, NOM1 / RFU, ARL8B / Fold change vs veh, ARL8B / RFU, ZBTB11 / Fold change vs veh, ZBTB11 / RFU, TAMM41 / Fold change vs veh, TAMM41 / RFU, KIAA1704 /// LOC100996395 / Fold change vs veh, KIAA1704 /// LOC100996395 / RFU, ING1 / Fold change vs veh, ING1 / RFU, TRMT61B / Fold change vs veh, TRMT61B / RFU, FUBP3 / Fold change vs veh, FUBP3 / RFU, TP53 / Fold change vs veh, TP53 / RFU, TNKS2 / Fold change vs veh, TNKS2 / RFU, ZFP14 / Fold change vs veh, ZFP14 / RFU, ACTR2 / Fold change vs veh, ACTR2 / RFU, PPP3R1 / Fold change vs veh, PPP3R1 / RFU, PIK3R1 / Fold change vs veh, PIK3R1 / RFU, HNRNPA1 / Fold change vs veh, HNRNPA1 / RFU, RNF170 / Fold change vs veh, RNF170 / RFU, ZNF28 / Fold change vs veh, ZNF28 / RFU, RNGTT / Fold change vs veh, RNGTT / RFU, OGT / Fold change vs veh, OGT / RFU, BRD1 / Fold change vs veh, BRD1 / RFU, MARS / Fold change vs veh, MARS / RFU, ZNF655 / Fold change vs veh, ZNF655 / RFU, FAHD1 / Fold change vs veh, FAHD1 / RFU, BDP1 / Fold change vs veh, BDP1 / RFU, LRRCC1 / Fold change vs veh, LRRCC1 / RFU, ARID1A / Fold change vs veh, ARID1A / RFU, ZNF146 / Fold change vs veh, ZNF146 / RFU, ZNF330 / Fold change vs veh, ZNF330 / RFU, GPN3 / Fold change vs veh, GPN3 / RFU, C9orf123 / Fold change vs veh, C9orf123 / RFU, N4BP2L2 / Fold change vs veh, N4BP2L2 / RFU, ARFIP1 / Fold change vs veh, ARFIP1 / RFU, FAM179B / Fold change vs veh, FAM179B / RFU, BCL10 / Fold change vs veh, BCL10 / RFU, UHRF1BP1L / Fold change vs veh, UHRF1BP1L / RFU, BET1 / Fold change vs veh, BET1 / RFU, CNOT2 / Fold change vs veh, CNOT2 / RFU, ZNF268 / Fold change vs veh, ZNF268 / Fold change vs veh, ZNF507 / RFU, DGCR2 / Fold change vs veh, DGCR2 / RFU, WDSUB1 / Fold change vs veh, WDSUB1 / Fold change vs veh, HSP90B1 /// MIR3652 / RFU, ADSS / Fold change vs veh, ADSS / RFU, GK / Fold change vs veh, GK / RFU, ZNF148 / Fold change vs veh, ZNF148 / RFU, TAF9 / Fold change vs veh, TAF9 / RFU, SLC1A5 / Fold change vs veh, SLC1A5 / RFU, SLMO2 / Fold change vs veh, SLMO2 / RFU, ABCC4 / Fold change vs veh, ABCC4 / RFU, LOC101060439 /// RAP1B / Fold change vs veh, LOC101060439 /// RAP1B / RFU, RFX7 / Fold change vs veh, RFX7 / RFU, GTPBP10 / Fold change vs veh, GTPBP10 / RFU, CNEP1R1 / Fold change vs veh, CNEP1R1 / RFU, BIVM-ERCC5 /// ERCC5 / Fold change vs veh, BIVM-ERCC5 /// ERCC5 / RFU, ILF3 / Fold change vs veh, ILF3 / RFU 11762660_at / Fold change /veh 11762660_at / RFU VCAN (11757783_s_at) / Fold change /veh VCAN (11757783_s_at) / RFU DDX43 (11728927_at) / Fold change /veh DDX43 (11728927_at) / RFU KRT8 (11758188_x_at) / Fold change /veh KRT8 (11758188_x_at) / RFU NKD1 (11759106_at) / Fold change /veh NKD1 (11759106_at) / RFU SRD5A1 (11742802_a_at) / Fold change /veh SRD5A1 (11742802_a_at) / RFU TPSAB1 /// TPSB2 (11721975_s_at) / Fold change /veh TPSAB1 /// TPSB2 (11721975_s_at) / RFU GSTM3 (11746129_a_at) / Fold change /veh GSTM3 (11746129_a_at) / RFU IL23R (11737362_x_at) / Fold change /veh IL23R (11737362_x_at) / RFU TMEM51 (11727254_a_at) / Fold change /veh TMEM51 (11727254_a_at) / RFU PIWIL2 (11732686_x_at) / Fold change /veh PIWIL2 (11732686_x_at) / RFU ORM1 (11744905_x_at) / Fold change /veh ORM1 (11744905_x_at) / RFU CCDC152 (11743942_at) / Fold change /veh CCDC152 (11743942_at) / RFU ECM1 (11717891_a_at) / Fold change /veh ECM1 (11717891_a_at) / RFU IL23R (11748794_a_at) / Fold change /veh IL23R (11748794_a_at) / RFU TNFAIP8L3 (11732012_x_at) / Fold change /veh TNFAIP8L3 (11732012_x_at) / RFU MBOAT4 (11741988_at) / Fold change /veh MBOAT4 (11741988_at) / RFU 11764193_at / Fold change /veh 11764193_at / RFU TMEM53 (11763286_at) / Fold change /veh TMEM53 (11763286_at) / RFU MAGEB2 (11727129_at) / Fold change /veh MAGEB2 (11727129_at) / RFU TMEM200A (11744735_a_at) / Fold change /veh TMEM200A (11744735_a_at) / RFU CCDC152 (11751479_a_at) / Fold change /veh CCDC152 (11751479_a_at) / RFU FAM211A (11726209_a_at) / Fold change /veh FAM211A (11726209_a_at) / RFU RGS16 (11746705_a_at) / Fold change /veh RGS16 (11746705_a_at) / RFU VCAN (11755009_s_at) / Fold change /veh VCAN (11755009_s_at) / RFU RHOB (11743442_s_at) / Fold change /veh RHOB (11743442_s_at) / RFU RGS16 (11720943_a_at) / Fold change /veh RGS16 (11720943_a_at) / RFU RGS16 (11720944_at) / Fold change /veh RGS16 (11720944_at) / RFU, VPS4B / Fold change vs veh, VPS4B / RFU, CREB1 / Fold change vs veh, CREB1 / RFU, DNAJC13 / Fold change vs veh, DNAJC13 / RFU, GNAQ / Fold change vs veh, GNAQ / RFU, CDK5R1 / Fold change vs veh, CDK5R1 / RFU, ZRANB3 / Fold change vs veh, ZRANB3 / RFU, CUL4A / Fold change vs veh, CUL4A / RFU, CCNY / Fold change vs veh, CCNY / RFU, UFL1 / Fold change vs veh, UFL1 / RFU, COG3 / Fold change vs veh, COG3 / RFU, DIAPH2 / Fold change vs veh, DIAPH2 / RFU, SKA2 / Fold change vs veh, SKA2 / RFU, AFF3 / Fold change vs veh, AFF3 / RFU, LMF1 / Fold change vs veh, LMF1 / RFU, IPO11 / Fold change vs veh, IPO11 / RFU, DFFB / Fold change vs veh, DFFB / RFU, FOXP1 / Fold change vs veh, FOXP1 / RFU, CARD8 / Fold change vs veh, CARD8 / RFU, STRN3 / Fold change vs veh, STRN3 / RFU, ADK / Fold change vs veh, ADK / RFU, RASSF2 / Fold change vs veh, RASSF2 / RFU, WIPF1 / Fold change vs veh, WIPF1 / RFU, LARP1B / Fold change vs veh, LARP1B / RFU, RASA1 / Fold change vs veh, RASA1 / RFU, RB1 / Fold change vs veh, RB1 / RFU, PPFIA1 / Fold change vs veh, PPFIA1 / RFU, MAT2A / Fold change vs veh, MAT2A / RFU, CCT5 / Fold change vs veh, CCT5 / RFU, WDR92 / Fold change vs veh, WDR92 / RFU, CUX1 / Fold change vs veh, CUX1 / RFU, TTC7A / Fold change vs veh, TTC7A / RFU, TMEM135 / Fold change vs veh, TMEM135 / RFU, DEPTOR / Fold change vs veh, DEPTOR / RFU, CPM / Fold change vs veh, CPM / RFU, DNAJB6 / Fold change vs veh, DNAJB6 / RFU, CACNA2D3 / Fold change vs veh, CACNA2D3 / RFU, DTX4 / Fold change vs veh, DTX4 / RFU, TFCP2 / Fold change vs veh, TFCP2 / RFU, GMCL1 /// GMCL1P1 / Fold change vs veh, GMCL1 /// GMCL1P1 / RFU, AEBP2 / Fold change vs veh, AEBP2 / RFU, SNHG1 /// SNORD22 /// SNORD25 /// SNORD26 /// SNORD27 /// SNORD28 /// SNORD29 /// SNORD31 / Fold change vs veh, SNHG1 /// SNORD22 /// SNORD25 /// SNORD26 /// SNORD27 /// SNORD28 /// SNORD29 /// SNORD31 / Fold change (Aza/veh), C12orf56 (ProbeSet 11735607_a_at) / Fold change (ACY-1035/veh), C12orf56 (ProbeSet 11735607_a_at) / Fold change (Aza/veh), FGFR1OP (ProbeSet 11751329_s_at) / Fold change (ACY-1035/veh), FGFR1OP (ProbeSet 11751329_s_at) / Fold change (Aza/veh), VPS36 (ProbeSet 11739960_a_at) / Fold change (ACY-1035/veh), VPS36 (ProbeSet 11739960_a_at) / RFU SYPL1 (11715823_x_at) / Fold change /veh SYPL1 (11715823_x_at) / RFU IGFBP7 (11715501_s_at) / Fold change /veh IGFBP7 (11715501_s_at) / RFU REEP3 (11722064_at) / Fold change /veh REEP3 (11722064_at) / RFU IGLL1 (11728026_x_at) / Fold change /veh IGLL1 (11728026_x_at): dose or concentration left out as unconfirmed. The following applies: ProbeSet 11741123_x_at; LIST D.

Results on 1 molecule are retold here after paper PMC5218480 (PLoS ONE, 2017).

Regarding `Nc1ncn([C@@H]2O[C@H](CO)[C@@H](O)[C@H]2O)c(=O)n1` [azacitidine], the “RFU, ADK” value amounted to 188.85 RFU.
